Experimental data reported in patent US20230256049A1, “MATERIALS AND METHODS FOR THE PREVENTION AND TREATMENT OF VIRAL RESPIRATORY DISEASES” (priority 2020, published 2023).
Where two headings read alike, the source gives them in different places. Where a SMILES comes first, the peptide text is derived from it. [ ]: non-standard residue; d: D form.

Legend:
SARS-CoV-2 = conditions: cited from earlier work; for treatment outcome in SARS-CoV-2 / COVID-19 patients: remdesivir: double-blind, randomized, placebo-controlled trial in hospitalized adults; for patient morbidity risk: treatment of SARS-CoV-2
[1] = system: SARS-CoV-2 (2019-nCoV/USA-WA1/2020 strain)
[2] = system: HIV-1 (primary R5 JR-CSF); assay: HIV-1 in vitro model, HeLa TZM reporter cells (alanine scan); type: cell-based; conditions: β-galactosidase at 48 h
[3] = system: SARS-CoV-2 (2019-nCoV/USA-WA1/2020 strain); conditions: VERO E6 (FIG. 5C)

CCN(CCO)CCCC(C)Nc1ccnc2cc(Cl)ccc12 (stereo not drawn) [hydroxychloroquine]
treatment outcome in SARS-CoV-2 / COVID-19 patients (SARS-CoV-2): failed | patient morbidity risk (SARS-CoV-2): increased patient morbidity risk

CC[C@@H](C)[C@@H](NC(=O)[C@@H](CC(=O)O)NC(=O)[C@@H](CCCNC(=N)N)NC(=O)[C@@H](CC(C)C)NC(=O)[C@@H](Cc1c[nH]c2ccccc12)NC(=O)[C@H](N)CO)C(=O)N[C@H](Cc1c[nH]c2ccccc12)C(=O)N[C@H](CC(=O)O)C(=O)N[C@H](Cc1c[nH]c2ccccc12)C(=O)N[C@@H](C(=O)N[C@H](CS)C(=O)N[C@H](CCC(=O)O)C(=O)N[C@@H](C(=O)N[C@H](CC(C)C)C(=O)N[C@H](CO)C(=O)N[C@H](CC(=O)O)C(=O)N[C@H](Cc1ccccc1)C(=O)N[C@H](CCCCN)C(=O)O)C(C)C)[C@H](C)CC [Peptide 346-002, swlrdiwdwicevlsdfk] (H-[dS][dW][dL][dR][dD][dI][dW][dD][dW][dI][dC][dE][dV][dL][dS][dD][dF][dK]-OH; N-terminus and C-terminus assumed)
EC50 ([1]; 2019-nCoV/USA-WA1/2020 strain, 48 h): 13 µM

CC[C@H](C)[C@H](NC(=O)[C@H](CC(C)C)NC(=O)[C@H](CC(=O)O)NC(=O)[C@@H](NC(=O)[C@H](Cc1c[nH]c2ccccc12)NC(=O)[C@H](CC(=O)O)NC(=O)[C@H](CCCNC(=N)N)NC(=O)[C@H](Cc1c[nH]c2ccccc12)NC(=O)[C@@H](NC(=O)[C@@H](N)CO)[C@@H](C)CC)C(C)C)C(=O)N[C@@H](CS)C(=O)N[C@@H](CCC(=O)O)C(=O)N[C@@H](Cc1ccccc1)C(=O)N[C@@H](CC(C)C)C(=O)N[C@@H](CO)C(=O)N[C@@H](CC(=O)O)C(=O)N[C@@H](Cc1c[nH]c2ccccc12)C(=O)N[C@@H](CCCCN)C(=O)O [Peptide 346-007, SIWRDWVDLICEFLSDWK] (H-SIWRDWVDLICEFLSDWK-OH; N-terminus and C-terminus assumed)
potency relative to the other peptides tested [1]: ca. double the potency of the other peptides tested

CCN(CC)CCCC(C)Nc1ccnc2cc(Cl)ccc12 (stereo not drawn) [chloroquine]
treatment outcome in SARS-CoV-2 / COVID-19 patients (SARS-CoV-2): failed | patient morbidity risk (SARS-CoV-2): increased patient morbidity risk

CC[C@H](C)[C@H](NC(=O)[C@H](CC(=O)O)NC(=O)[C@H](CCCNC(=N)N)NC(=O)[C@H](CC(C)C)NC(=O)[C@H](Cc1c[nH]c2ccccc12)NC(=O)[C@@H](N)CO)C(=O)N[C@@H](Cc1c[nH]c2ccccc12)C(=O)N[C@@H](CC(=O)O)C(=O)N[C@@H](Cc1c[nH]c2ccccc12)C(=O)N[C@H](C(=O)N[C@@H](CS)C(=O)N[C@@H](CCC(=O)O)C(=O)N[C@H](C(=O)N[C@@H](CC(C)C)C(=O)N[C@@H](CO)C(=O)N[C@@H](CC(=O)O)C(=O)N[C@@H](Cc1ccccc1)C(=O)N[C@@H](CCCCN)C(=O)O)C(C)C)[C@@H](C)CC [Peptide 346-001, SWLRDIWDWICEVLSDFK] (H-SWLRDIWDWICEVLSDFK-OH; N-terminus and C-terminus assumed)
antiviral activity against HIV-1 (in vitro HIV-1 inhibition) [2]: effective against HIV-1 | reduction on viral copy numbers ([3]; 50 μM dosing concentration): > 5 orders of magnitude | reduction on viral copy numbers ([3]; 125 μM dosing concentration): > 7 orders of magnitude
